Measurements reported in patent publication US20230218577A1, “USE OF HEAT SHOCK PROTEIN INHIBITORS FOR THE TREATMENT OF NEURODEVELOPMENTAL DISORDERS” (The Children's Medical Center Corporation, priority 2020, published 2023).

Tests used:
[1] = system: Hsp27, Hsp40, Hsp60, Hsp70, Hsp90 expression in Tsc2-sh neurons; assay: Western blot of heat shock proteins in Tsc2-sh neurons; format: cell-based, rat; settings: for down-regulating Hsp27 expression: increasing doses for four days DIV 9-13
Text: To investigate the mechanism and explore the pharmacological window by which 17-AGG increases ciliation in Tsc2-knockdown neurons, the heat shock response in these neurons was examined. The heat shock proteins (Hsps) are divided into six families based on their size, and these proteins function in multi-component complexes that are closely inter-related (Chatterjee and Burns, Targeting Heat Shock Proteins in Cancer: A Promising Therapeutic Approach; Int J Mol Sci 18 (2017)). In addition, while most of them are constitutively expressed, some are expressed only under stress (Garrido et al., Heat shock proteins 27 and 70: anti-apoptotic proteins with tumorigenic properties; Cell Cycle 5, 2592-2601 (2006)). Expression levels of Hsp90 and other HSP family members at DIV13 and DIV20 was assessed following four days of treatment with different concentrations of the Hsp90 inhibitor 17-AGG. In the absence of any compound, Tsc2-knockdown neurons had increased levels of the small heat shock protein 27 (Hsp27) with no change in Hsp90, Hsp70, Hsp60 and Hsp40 (FIGS. 5A-L). […] In addition, there was no change observed in Hsp27 expression due to treatment with 17-AGG in Tsc2 knockdown neurons at DIV20, consistent with the lack of effect on cilia at that age (FIGS. 5G-H, FIG. 10F). Inhibition of the Hsp90 pathway by 17-AGG was confirmed by induction of Hsp40 and Hsp70, consistent with the reported release of Hsp90-dependent inhibition on HSF1 (Zou et al., Repression of heat shock transcription factor HSF1 activation by HSP90 (HSP90 complex) that forms a stress-sensitive complex with HSF1; Cell 94, 471-480 (1998)) (FIGS. 5A, C, E, G, K). It was then evaluated whether Hsp27 upregulation was linked to mTORC1 hyper-activation. […] These findings indicate that Hsp27 contributes to the mTORC1-dependent mechanism implicated in defective ciliation under loss of neuronal TSC1/2 activity.
To test whether Hsp27 down-regulation may contribute to restoring ciliation in Tsc2-deficient neurons, Hsp27 was knocked-down by hspB1 gene silencing using lentiviral expression of RFP-tagged Hsp27shRNA (RFP-Hsp27sh) or scrambled shRNA as a control (RFP-C).
The effect of CUDC-305 and NPV-HSP-990 on Hsp27 expression was then tested.
Protein extracts were lysed in 1×SDS (22 mM Tris-HCl pH 6.8, 4% Glycerol, 0.8% SDS, 1.6% β-mercaptoethanol, bromphenol blue) sample buffer, heated to 95° C. for 5 min and stored frozen. Before being subjected to discontinuous gel electrophoresis, equal amounts of all protein lysates were verified by Coomassie gel staining. For immunoblotting, equal amounts of protein lysates were subjected to SDS-PAGE, transferred to Immobilon-P Millipore and incubated in LI-COR blocking solution at RT for 2 hrs. Primary and secondary antibodies were diluted in LI-COR blocking solution to the appropriate concentrations. LI-COR IRDye secondary antibodies were used. All images were acquired using the LI-COR Odyssey Classic imager and associated Image Studio Lite analysis software (version 5.2.5). Quantification of protein expression was performed by densitometry scans of immunoblots using LI-COR Odyssey imaging system.
Western blot quantifications were performed by protein normalization using GAPDH as loading control. Level of phosphorylated proteins was expressed as the ratio of phosphorylated/total level after GAPDH normalization. Low sample size datasets were tested for normality and when appropriate they were analyzed with non-parametric tests. IC50 values were calculated using the nonlinear regression equation “dose-response curves—Inhibition” of GraphPad PRISM. Data were expressed as percent of vehicle-treated Tsc2-sh neurons which were considered 100% and drug's concentrations were transformed to logarithmic 10 scale. EC50 values were calculated using the nonlinear regression equation “dose-response curves—Stimulation” of Prism. […]

Tsc2-sh neurons = assay: Toxicity: number of nuclei per field in Tsc2-sh neurons; format: cell-based, rat; settings: four days (DIV9-13), nuclei stained at DIV13
Experimental: HSP90 inhibitors were tested to determine their effect on ciliation in TSC2-deficient neurons. Tsc2 was knocked down using an shRNA in primary rat neurons. The neurons were then treated with different doses of either CUDC-305 or NPV-HSP-990. To assess toxicity for CUDC-305, Tsc2-sh neurons were treated with increasing concentrations (6 nM, 12.5 nM, 25 nM, 50 nM, 100 nM, 200 nM, 400 nM) of CUDC-305 for four days (DIV9-13) and then stained for nuclei at DIV13 to determine the number of nuclei per field. […] The effect of ciliation of Tsc2-sh neurons after treatment with CUDC-305 was then examined.
Another HSP90 inhibitor, NPV-HSP-990, was examined for its effect on ciliation in TSC2-deficient neurons. To assess toxicity for NPV-HSP-990, Tsc2-sh neurons were treated with increasing concentrations (0.05 nM, 0.16 nM, 0.5 nM, 1.5 nM, 4.4 nM, 13.3 nM, 40 nM) of NPV-HSP-990 for four days (DIV9-13) and then stained for nuclei at DIV 13 to determine the number of nuclei per field.

[2] = Tsc2-sh neurons, four-day dose curve

SMILES: C=CCNC1=C2C[C@@H](C)C[C@H](OC)[C@H](O)[C@@H](C)/C=C(\C)[C@H](OC(N)=O)[C@@H](OC)C=C/C=C(\C)C(=O)NC(=CC1=O)C2=O [17-AGG, 3 S,5S,6R,7S,8E,10R,11S,12E,14E)-21-(allylamino)-6-hydroxy-5,11-dimethoxy-3,7,9,15-tetramethyl-16,20,22-trioxo-17-azabicyclo[16.3.1]docosa-8,12,14,18,21-pentaen-10-yl] carbamate]
- Hsp40 expression [1, 2]: induction
- Hsp70 expression [1, 2]: induction
- aberrant Hsp27 expression ([1]; Tsc2 knockdown cultures at DIV13, four days of 17-AGG ranging from 5-450 nM): reduced
- Hsp27 expression ([1]; Tsc2 knockdown neurons at DIV20, four days of treatment): no change

SMILES: COc1cccc(-c2cc(F)ccc2[C@H]2Cc3nc(N)nc(C)c3C(=O)N2)n1 [NPV-HSP-990, (R)-2-amino-7-((R)-4-fluoro-2-(6-methoxypyridin-2-yl)phenyl)-4-methyl-7,8-dihydropyrido[4,3-d]pyrimidin-5(6H)-one]
- doses at which the number of nuclei began to reduce (suggestive of toxicity) (Tsc2-sh neurons): above 4.4 nM
- down-regulating Hsp27 expression ([1]; Tsc2-sh neurons): Neither compound had a significant effect

SMILES: CO[C@H]1C[C@@H]2CC[C@@H](C)[C@@](O)(O2)C(=O)C(=O)N2CCCC[C@H]2C(=O)O[C@H]([C@H](C)C[C@@H]2CC[C@@H](O)[C@H](OC)C2)CC(=O)[C@H](C)/C=C(\C)[C@@H](O)[C@@H](OC)C(=O)[C@H](C)C[C@H](C)/C=C/C=C/C=C/1C [rapamycin]
- Hsp27 upregulation ([1]; Tsc2-sh neurons, 20 nM rapamycin between DIV9-13, measured at DIV13): reduced

SMILES: CN(C)c1cc2c(cc1Sc1nc3c(N)nccc3n1CCNCC(C)(C)C)OCO2 [CUDC-305, 4-amino-2-[[6-(dimethylamino)-1,3-benzodioxol-5-yl]thio]-N-(2,2-dimethylpropyl)-1H-imidazo[4,5-c]pyridine-1-ethanamine]
- doses at which the number of nuclei began to reduce (suggestive of toxicity) (Tsc2-sh neurons): above 100 nM
- down-regulating Hsp27 expression ([1]; Tsc2-sh neurons): Neither compound had a significant effect
